Measurements taken from BindingDB's records for patent US20230340011 (Asteroid Therapeutics, 2023).

Assays:
[1] = target: T1, Oxysterols receptor LXR-beta (Homo sapiens, UniProt P55055); assay: In Vitro Assay-LXRβ
T1 sequence (P55055 whole entry): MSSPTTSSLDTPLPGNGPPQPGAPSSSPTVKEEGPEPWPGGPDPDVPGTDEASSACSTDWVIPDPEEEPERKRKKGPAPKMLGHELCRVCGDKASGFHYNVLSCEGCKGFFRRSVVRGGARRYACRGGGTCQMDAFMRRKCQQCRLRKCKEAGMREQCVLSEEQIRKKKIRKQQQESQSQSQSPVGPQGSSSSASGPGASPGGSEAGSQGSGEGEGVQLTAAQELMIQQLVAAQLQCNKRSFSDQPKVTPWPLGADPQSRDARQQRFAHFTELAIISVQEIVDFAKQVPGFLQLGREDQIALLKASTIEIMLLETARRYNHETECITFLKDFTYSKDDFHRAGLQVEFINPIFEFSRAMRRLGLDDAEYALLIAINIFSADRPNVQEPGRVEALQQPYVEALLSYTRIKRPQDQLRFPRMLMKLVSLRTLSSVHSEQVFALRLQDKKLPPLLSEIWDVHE
Method: PathHunter NHR CHO cells stably transfected with tagged full-length human LXRβ and a nuclear fusion protein containing Steroid Receptor Co-activator Peptide (SRCP). The full-length human LXRβ was tagged with the ProLink component of the DiscoverX Enzyme Fragment Complementation (EFC) system and the SRCP domain is fused to the enzyme acceptor component (EA) expressed in the nucleus. Cells were seeded in a total volume of 20 μL into white walled, 384-well microplates and incubated at 37 C. overnight prior to testing. Assay media contained charcoal-dextran filtered serum to reduce the level of hormones present. Final assay vehicle concentration was 1%. […] Microplates were read following signal generation with a PerkinElmer Envision instrument for chemiluminescent signal detection.

[2] = target: T2, Sterol regulatory element-binding protein 2 (Homo sapiens, UniProt Q12772); assay: In Vitro Assay-SREBP-2
T2 sequence (Q12772 whole entry): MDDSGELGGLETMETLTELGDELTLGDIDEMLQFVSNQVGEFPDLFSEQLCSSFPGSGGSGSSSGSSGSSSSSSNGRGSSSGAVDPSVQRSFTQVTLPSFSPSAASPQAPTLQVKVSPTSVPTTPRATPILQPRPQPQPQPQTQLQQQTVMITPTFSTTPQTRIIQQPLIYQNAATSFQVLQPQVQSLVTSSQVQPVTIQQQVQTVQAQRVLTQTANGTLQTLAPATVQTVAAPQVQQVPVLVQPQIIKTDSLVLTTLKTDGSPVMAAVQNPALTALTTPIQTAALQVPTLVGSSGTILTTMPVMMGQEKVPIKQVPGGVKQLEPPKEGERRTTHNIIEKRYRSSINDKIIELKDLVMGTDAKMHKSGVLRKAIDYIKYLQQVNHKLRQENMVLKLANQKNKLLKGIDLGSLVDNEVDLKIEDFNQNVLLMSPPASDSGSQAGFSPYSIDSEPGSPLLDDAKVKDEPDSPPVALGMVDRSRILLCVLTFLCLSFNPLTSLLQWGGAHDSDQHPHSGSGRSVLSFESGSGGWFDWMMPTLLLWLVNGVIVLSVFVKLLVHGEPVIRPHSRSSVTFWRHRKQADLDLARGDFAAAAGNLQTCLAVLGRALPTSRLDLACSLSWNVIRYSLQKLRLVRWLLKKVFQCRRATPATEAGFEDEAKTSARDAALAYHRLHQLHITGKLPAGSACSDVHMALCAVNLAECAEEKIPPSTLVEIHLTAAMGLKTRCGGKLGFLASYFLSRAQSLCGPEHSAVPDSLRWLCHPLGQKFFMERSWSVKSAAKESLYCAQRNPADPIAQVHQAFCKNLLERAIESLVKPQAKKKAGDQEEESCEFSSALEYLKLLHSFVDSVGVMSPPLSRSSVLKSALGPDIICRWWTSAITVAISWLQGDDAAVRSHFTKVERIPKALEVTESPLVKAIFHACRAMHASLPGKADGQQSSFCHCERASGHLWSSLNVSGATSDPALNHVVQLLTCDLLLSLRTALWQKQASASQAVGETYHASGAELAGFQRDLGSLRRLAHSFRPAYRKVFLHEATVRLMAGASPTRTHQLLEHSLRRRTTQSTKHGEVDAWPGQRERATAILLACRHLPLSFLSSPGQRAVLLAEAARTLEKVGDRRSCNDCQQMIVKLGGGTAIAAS
Method: 10,000 cells/well of the PathHunter U2OS SREBP-2 Nuclear Translocation Cell Line are plated in quadruplicate on 384 well plates in 20 μL of AssayComplete cell plating 5 reagent (CP5-high serum) overnight at 37° C./5% CO2. A dilution series of test compound is added to cells, incubated for 1 hour at 37° C./5% CO2, and U18666A (a known SREBP agonist) is added to a final concentration of 10 μM. The plate is incubated overnight (16 hours) at 37° C./5% CO2. PathHunter Flash detection mix is added to the wells, incubated one hour in the dark, and the plate read on an Envision luminometer.

SMILES | IC50 [1] | IC50 [2] [nM]
Cc1cccc(/C=C/[C@@H](C)[C@H]2CC[C@H]3[C@@H]4CC=C5C[C@@H](O)CC[C@]5(C)[C@H]4CC[C@]23C)n1 [US20230340011, Example 132.] | in the range around 5500 nM | –
C[C@H](CCC(=O)N1CCN(C(=O)c2ccnnc2)CC1)[C@H]1CC[C@H]2[C@@H]3CC=C4C[C@@H](O)CC[C@]4(C)[C@H]3CC[C@]12C [US20230340011, Example 389.] | – | ≤ 250
COC(=O)N1CCN(C(=O)CCC[C@H]2CC[C@H]3[C@@H]4CC=C5C[C@@H](O)CC[C@]5(C)[C@H]4CC[C@]23C)CC1 [US20230340011, Example 421.] | – | ≤ 250
CCOC(=O)N1CCN(C(=O)CC[C@@H](C)[C@H]2CC[C@H]3[C@@H]4CC=C5C[C@@H](O)CC[C@]5(C)[C@H]4CC[C@]23C)CC1 [US20230340011, Example 422.] | – | ≤ 250
